Experimental data taken from publication PMC6934184, “Selective DNA-PKcs inhibition extends the therapeutic index of localized radiotherapy and chemotherapy” (The Journal of Clinical Investigation, 2019).

Molecular target: T1, CDK5/p25 (Homo sapiens, UniProt Q00535)
T1 construct: purchased Thermo Fisher Scientific (Life Technologies) SelectScreen
Assay: SelectScreen Z'LYTE
Type: biochemical
Method in brief: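 SelectScreen broad panel; activity (Z'LYTE, Adapta) plus binding formats. ATP: Km app for CSF1R Z'LYTE; 10 for CAMK1 Adapta. Readout = % per kinase.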

T1 sequence (Q00535 whole entry): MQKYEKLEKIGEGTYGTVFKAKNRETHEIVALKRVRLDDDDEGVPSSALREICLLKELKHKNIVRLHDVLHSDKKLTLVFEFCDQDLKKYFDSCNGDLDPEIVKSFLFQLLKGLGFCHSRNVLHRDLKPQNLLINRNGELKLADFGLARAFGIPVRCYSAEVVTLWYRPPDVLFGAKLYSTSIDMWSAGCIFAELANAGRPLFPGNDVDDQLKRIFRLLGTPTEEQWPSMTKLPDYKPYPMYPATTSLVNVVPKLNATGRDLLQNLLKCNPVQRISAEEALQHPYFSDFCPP
T1 sequence (Q15078 99-307 partner limits assumed): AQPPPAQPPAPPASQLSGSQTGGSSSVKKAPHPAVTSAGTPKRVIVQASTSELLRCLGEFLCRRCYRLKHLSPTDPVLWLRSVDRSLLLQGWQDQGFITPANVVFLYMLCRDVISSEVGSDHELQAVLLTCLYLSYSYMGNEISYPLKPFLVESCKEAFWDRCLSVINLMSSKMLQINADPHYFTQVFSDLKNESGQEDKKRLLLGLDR

`CN(C(=O)CN1CCOCC1)c1ccc2sc3c(-c4cccc5c(=O)cc(N6CC7CCC(C6)O7)oc45)cccc3c2c1` [NU5455] showed an inhibition at 1 µM of -1.1%.
